Broadly, the IC50 is the point on the concentration scale where inhibition reaches its midpoint.

This passage reports IC50 results from US20040214850A1, “1-glyoxylamide indolizines for treating cancer” (Synta Pharmaceuticals Corp., priority 2001, published 2004).

Read-outs that look alike come from different tables or passages of the source.

The test system of assay [1] is HL-60/TX1000 (multi-drug resistant human myeloid leukemia cell line). In words: In vitro activity against multi-drug resistant cell line HL-60/TX1000. To be noted: HL60/TX1000, HL-60/TX1000 MDR cells (Table 2). It counts as cell-based. As to the method:
(§1) The cell lines were maintained in RPMI1640 (GIBCO) supplemented with 10% FCS, 100 units/ml penicillin, 100 ug/ml streptomycin, and 2 mM L-glutamine. The cells were split every third day and diluted to a concentration of 2×10^5 cells/ml one day before experiment. All experiments were performed on exponentially growing cell culture. Cell densities were 2.5×10^4 cells/ml in all experiment.
(§2) A stock solution of Compound (1) and a stock solution of Taxol (positive control) were prepared by dissolving the compound at a concentration of 1 mM in 100% DMSO. Final concentrations were obtained by diluting the stock solution directly into the tissue culture medium. Cells were incubated with varying concentrations of the compounds for 72 hours and the IC50 was determined by MTS (i.e. 3-(4,5,-dimethylthiazol-2-yl)-2,5-diphenyl tetrazolium bromide) assay. IC50 stands for the concentration of compound required to inhibit 50% tumor cell growth.
(§3) In vitro activity was determined in two MDR (Multi Drug Resistant) human cancer cell lines. HL-60/TX1000 was isolated in vitro by subculturing HL-60 in progressively higher concentration of Taxol. HL-60/TX1000 cells over-express mdr-1 mRNA and p-glycoprotein, as determined by western blot and immunofluorescence labeling with antiPGP antibodies. The cell is cross-resistant to Taxol, Vincristine, Adriamycin, Etoposide and Doxorubicin. MES-SA/Dx5 was established in the presence of increasing concentrations of Doxorubicin. […] MES-SA/Dx5 was purchased from ATCC.
(§4) The procedure for culturing the cells and assaying cancer cell growth inhibition were as described in Example 3.

Assay [2] has as its system MES-SA/DX5 (multi-drug resistant human uterine sarcoma cell line). The assay can be described thus: In vitro activity against multi-drug resistant cell line MES-SA/DX5. The format is cell-based. As to the method: as §1, §2, §3, §4
The protocol described in Examples 9-10 was used to assay inhibition by Compounds (2)-(8) on the growth of the multidrug resistant cancer cell line MES-SA/DX5, which is a MDR uterine sarcoma cell line.

In assay [3] the test system is MDR cell lines (MES-SA/DX5, HL-60/TX1000). In words: in vitro activity over the two MDR cell lines. It counts as cell-based, human. To be noted: Homo sapiens; range over MES-SA/DX5 and HL-60/TX1000; read-out: IC50 against the MDR cell lines. As to the method:
as §1, §2, §3, §4

Assay [4] deals with MDA435 (human breast cancer). In words: In vitro anti-cancer activity, MTS growth inhibition assay, MDA-435. It counts as cell-based. The conditions noted are these: MDA-435 cells, 72 hours. The protocol: (§5) The in vitro activity of the compounds was determined in the following seven human cancer cell lines. MDA435 (human breast cancer), MIP101 (human colon cancer), HL-60 (human myeloid leukemia), U937 (human leukemia), p388 (murine leukemia), DU-145 (human prostate cancer), MES-SA (human uterine sarcoma) were obtained from ATCC (American Type of Culture Collection).
as §1, §2
Background: Tetrazolium assays rely on reduction of a dye to a coloured formazan, in cell work by metabolically active cells.

In assay [5] the test system is MIP101 (human colon cancer). The assay can be described thus: In vitro anti-cancer activity, MTS growth inhibition assay, MIP-101. To be noted: MIP-101 cells, 72 hours. It counts as cell-based. As to the method: as §5, §1, §2
The test system of assay [6] is HL-60 (human myeloid leukemia). The assay can be described thus: In vitro anti-cancer activity, MTS growth inhibition assay, HL-60. The format is cell-based. To be noted: HL-60 cells, 72 hours. The protocol:
as §5, §1, §2

Assay [7] has as its system U937 (human leukemia). The assay can be described thus: In vitro anti-cancer activity, MTS growth inhibition assay, U-937. It counts as cell-based. To be noted: U-937 cells, 72 hours. The protocol:
as §5, §1, §2

Assay [8] concerns p388 (murine leukemia). The assay can be described thus: In vitro anti-cancer activity, MTS growth inhibition assay, p388. To be noted: Mus musculus, p388 cells, 72 hours. It counts as cell-based. The protocol:
as §5, §1, §2

For assay [9], the system named is DU-145 (human prostate cancer). In words: In vitro anti-cancer activity, MTS growth inhibition assay, DU-145. The format is cell-based. As to the method: as §5, §1, §2
(§6) The protocol described in Examples 9-10 was used to assay inhibition by Compounds (20) (21) (24) and (28) on the growth of cancer cell lines MES-SA (human uterine sarcoma cell line) and DU-145 (human prostate cancer).

Assay [10] concerns MES-SA (human uterine sarcoma). In words: In vitro anti-cancer activity, MTS growth inhibition assay, MES-SA. The format is cell-based. The protocol:
as §5, §1, §2, §6

In assay [11] the test system is MES-SA and DU-145. The assay can be described thus: in vitro activity over MES-SA and DU-145. The format is cell-based. To be noted: Homo sapiens; range over both cell lines; read-out: IC50 against MES-SA and DU-145. The protocol:
as §1, §2, §6

[12] abbreviates: MES-SA/DX5 MDR cells (Table 3, Example 12).
[13] abbreviates: DU-145 cells (Table 4, Example 13), read-out: IC50 DU-145.
[14] abbreviates: MES-SA cells (Table 4, Example 13), read-out: IC50 MES-SA.

In the case of `CC[C@]1(O)C[C@H]2CN(CCc3c([nH]c4ccccc34)[C@@](C(=O)OC)(c3cc4c(cc3OC)N(C=O)[C@H]3[C@@](O)(C(=O)OC)[C@H](OC(C)=O)[C@]5(CC)C=CCN6CC[C@]43[C@@H]65)C2)C1` [Vincristine], the IC50 in assay [1] was 5000 nM; in assay [2] (MES-SA/Dx5, MES-SA/DX-5 MDR cells (Table 2)) it was 1000 nM; in assay [3], 1000 to 5000 nM.

Regarding `CC(=O)O[C@H]1C(=O)[C@@]2(C)[C@H]([C@H](OC(=O)c3ccccc3)[C@]3(O)C[C@H](OC(=O)[C@H](O)[C@@H](NC(=O)c4ccccc4)c4ccccc4)C(C)=C1C3(C)C)[C@]1(OC(C)=O)CO[C@@H]1C[C@@H]2O` [Taxol, reference compound], the IC50 worked out at 5 nM in assay [4]; 500 nM in assay [5]; 5 nM in [6]; 5 nM in [7]; 10 nM in assay [8]; 5 nM in assay [9] (DU-145 cells, 72 hours, MTS assay (Table 1), read-out: IC50). Also, the IC50 in [10] (MES-SA cells, 72 hours, MTS assay (Table 1), read-out: IC50) was 5 nM; in [1], 5000 nM; in assay [2] (setting [12]) it was 5000 nM; in assay [3] it was 1000 to 5000 nM.

Compound `Cc1cc(NC(=O)C(=O)c2cc(Cc3ccccc3)n3ccccc23)sn1` [Compound (6)] showed an IC50 in assay [2] (setting [12]) of 50 nM.

For `Cc1cc(NC(=O)C(=O)c2cc(Cc3ccc(F)cc3)n3ccccc23)sn1` [Compound (7)], half-maximal inhibition in assay [2] (setting [12]) (IC50) was put at 50 nM.

Compound `Cc1cc(NC(=O)C(=O)c2cc(Cc3ccc(C#N)cc3)n3cc(F)ccc23)sn1` [Compound (4)] came in with an IC50 in [2] (setting [12]) of 50 nM.

`COc1ccc(Cc2cc(C(=O)C(=O)Nc3cc(C)ns3)c3ccccn23)cc1` [Compound (8)] came in with an IC50 in [2] (setting [12]) of 100 nM.

Take `N#Cc1ccc(Cc2cc(C(=O)C(=O)Nc3ccc4ncccc4c3)c3ccccn23)cc1` [Compound (5)]: in [2] (setting [12]), the IC50 is 100 nM.

In the case of `Cc1ccc2c(C(=O)C(=O)Nc3cc(C)ns3)cc(Cc3ccc(C#N)cc3)n2c1` [Compound (24), 2-[3-(4-Cyano-benzyl)-6-methyl-indolizin-1-yl]-N-(3-methyl-isothiazol-5-yl)-2-oxo-acetamide], the IC50 in [9] (setting [13]) was 50 nM; in assay [10] (setting [14]), 50 nM; in [11] it was 50 to 100 nM.

As for `Cc1cc(NC(=O)C(=O)c2cc(N(C)c3ccc(C#N)cc3)n3ccccc23)sn1` [Compound (21), 2-{3-[(4-Cyano-phenyl)-methyl-amino]-indolizin-1-yl}-N-(3-methyl-isothiazol-5-yl)-2-oxo-acetamide], the IC50 in [9] (setting [13]) was 50 nM; in assay [10] (setting [14]), 50 nM; in [11] it was 50 to 100 nM.

Regarding `Cc1cc(NC(=O)C(=O)c2cc(Cc3ccc(C#N)s3)n3ccccc23)sn1` [Compound (28), 2-[3-(5-cyano-thiophen-2-ylmethyl)-indolizin-1-yl]-N-(3-methyl-isothiazol-5-yl)-2-oxo-acetamide], the IC50 is 100 nM in assay [9] (setting [13]), 100 nM in assay [10] (setting [14]) and 50 to 100 nM in assay [11].

Turning to `O=C(Nc1ccc2ncccc2c1)C(=O)c1cc(Cc2ccc(Cl)cc2)n2ccccc12` [Compound (3)], the IC50 in assay [2] (setting [12]) was 100 nM.

In turn, `Cc1cc(NC(=O)C(=O)c2cc(Cc3ccc(Cl)cc3)n3ccccc23)sn1` [Compound (2)] had an IC50 in [2] (setting [12]) of 60 nM.

Consider `Cc1cc(NC(=O)C(=O)c2cc(Oc3ccc(C#N)cc3)n3ccccc23)sn1` [Compound (20), 2-[3-(4-Cyano-phenoxy)-indolizin-1-yl]-N-(3-methyl-isothiazol-5-yl)-2-oxo-acetamide], for which the IC50 was 50 nM in [9] (setting [13]), 50 nM in [10] (setting [14]) and 50 to 100 nM in [11].
